The values below come from patent US10092566B2, “Composition for controlling a gut immunity and use thereof” (SEOUL NATIONAL UNIVERSITY R&DB FOUNDATION, priority 2013, dated 2018).

Entries after “also recorded” stand apart in the source; their conditions may differ. Where only a bound is given, the exact number is not on record here.

One data set deals with DUOX. Briefly: In vivo ROS detection in gut epithelia (HOCl-specific R19S staining, ratio of ROS-positive guts). Set-up: species or system Drosophila. An excerpt: R19S, a recently developed HOCl-specific rhodamine-based dye, was used in this experiment (Chen et al., Chem Commun (Camb) 47, pp. 4373-4375, 2011). R19S was purchased from Futurechem (Seoul, South Korea). […]
Furthermore, to measure the basal level of ROS in germ-free animals, Drosophila monoassociated with each bacterium (C. intestini, A. pomorum, L. plantarum, G. morbifer, G. morbifer-carA::Tn5, L. brevis, or L. brevisΔcarA) were experimented with as disclosed above. A 5% sucrose solution containing 10 μM of R19S was orally administered to the monoassociated Drosophila (13 days old) for 90 minutes.
Following the R19S ingestion, the midguts were dissected and fixed with 4% formaldehyde. The level of HOCl (ROS level) was visualized by LSM700 confocal microscopy (Carl Zeiss).
For all of the experiments, R19S-positive guts in each animal group (n=approx. 20) were measured by each independent experiment, and data was indicated by at least three repeated and independent experiments. The number of R19S-positive guts in regard to the total numbers of gut samples was indicated as the ratio of ROS-positive guts.

The next data set deals with p38. Description: p38 activation by phospho-p38 immune staining of midgut. Type of data set: in vivo, Drosophila. Particulars: uracil 20 nM for 2 hours. The method, then:
To examine uracil-induced p38 activation, a 5% sucrose solution containing 20 nM of uracil was orally administered to genetically different adult Drosophila (5 to 6 days old) for 2 hours. Midguts were dissected in PBS and fixed with 4% paraformaldehyde for 15 minutes. The midguts were washed three times with PBS containing 0.1% of Triton X-100 for 5 minutes and were cultured in the above solution with additional 5% cow blood serum albumin for 1 hour. Next, the sample was cultured with additional phospho-specific anti-p38 antibody (1:500 dilution; Millipore, Milford, Mass., USA) at 4° C. for 16 hours. The sample was washed five times with PBS containing 0.1% Triton X-100 for 5 minutes and cultured at room temperature for 20 minutes after adding secondary antibodies (1:500 dilution; Alexa Fluor 568 goat anti-rabbit IgG; Invitrogen, Carlsbad, Calif., USA). After washing the sample three times with PBS containing 0.1% Triton X-100 for 5 minutes, the sample was mounted with mounting buffer solution (Vectorshield, Vector Laboratories Inc., Burlingame, Calif., USA) and was analyzed by LSM 700 confocal microscopy (Carl Zeiss, Oberkochen, Germany)

The next data set deals with IMD pathway. Briefly: Gut IMD pathway activation (Cec expression, qPCR). Type of data set: in vivo, Drosophila. Particulars: uracil 20 nM, 4 hours. The method, then:
Fluorescent RT-PCR was conducted to quantify gene expression and double-stranded DNA dye and SYBR green (Perkin Elmer, Waltham, Mass., USA) were used. To detect target gene trascriptomes, Cecropin (Sense, 5′-ATGAACTTCTACAACATCTTCG-3′ (SEQ ID NO: 5); Antisense, 5′-GGCAGTTGCGGCGACATTGGCG-3′ (SEQ ID NO: 6)), Diptericin (Sense, 5′-GGCTTATCCGATGCCCGACG-3′ (SEQ ID NO: 7); Antisense, 5′-TCTGTAGGTGTAGGTGCTTCCC-3′ (SEQ ID NO: 8)), and DUOX (Sense, 5′-GCTGCACGCCAACCACAAGAGACT-3′ (SEQ ID NO: 9); Antisense, 5′-CACGCGCAGCAGGATGTAAGGTTT-3′ (SEQ ID NO: 10)) were used, and as a control group, Rp49 (Sense, 5′-AGATCGTGAAGAAGCGCACCAAG-3′ (SEQ ID NO: 11); Antisense, 5′-CACCAGGAACTTCTTGAATCCGG-3′ (SEQ ID NO: 12)) was used. SYBR green analysis was conducted by an ABI PRISM 7700 system (PE Applied Biosystems, Foster City, Calif., USA) according to the manufacturer's instructions. All of the samples were repeated three times and analyzed, and a detected amount of mRNA was normalized with mRNA in the control group. Normalized data was used to quantify the relative amount of mRNA according to cycling threshold analysis. Targeted gene expression was expressed as the relative amount of expression.
(In qPCR the cycle at which signal appears reflects the starting amount.)

In another data set the test system is PLCβ. Description: PLCβ position in cell membrane (PLCβ-RFP flies). Type of data set: in vivo, Drosophila. Particulars: uracil 20 nM for 2 hours. The protocol: Genetically modified Drosophila containing PLCβ-RFP (UAS-PLCβ-RFP; Da-GAL4) were used to monitor activated PLCβ generation which is targeted in the membrane as disclosed in the previous research (Ha et al., Nat Immunol 10, pp. 949-957, 2009). A 5% sucrose solution containing 20 nM of uracil was ingested by Drosophila (5 to 6 days old) for 2 hours.

Another data set relates to germ-free Drosophila. Description: Survival duration of germ-free flies on uracil-containing media. The format is in vivo. The text has this:
Control Drosophila and PLCβ-DUOX pathway-mediated mutated Drosophila (PLCβ^−/− and DUOX-RNAi) were used in the experiment. It is known that PLCβ^−/− and DUOX-RNAi flies have a short life span under conventional rearing conditions but a normal life span under germ-free conditions (Ha et al., Nat Immunol 10, pp. 949-957, 2009). Therefore, to examine the effects of uracil on the survival rate of genetically different Drosophila, germ-free animals were used. Germ-free animals were reared in germ-free media containing 1 nM of uracil. Germ-free animals were moved to a newly sterilized bottle that had germ-free media containing uracil every 4 or 5 days. Drosophila remained germ-free throughout the entire experimental processes.

The subject of the next data set is Drosophila S2 cells. Briefly: Measurement of intracellular calcium (fura-2). The conditions noted are these: uracil 20 nM. The format is cell-based. The method, then: Intracellular Ca^2+ was measured by the method disclosed in the previous research (Rosker et al., J Biol Chem 279, pp. 13696-13704, 2004). Briefly speaking, Drosophila S2 cells (approx. 10^8 cells) were loaded with pH 7.4 buffer containing 10 mM glucose, 140 mM NaCl, 1 mM CaCl2, 5 mM KCl, 1 mM MgCl2, and 10 mM HEPES and the solution was treated with […] fura-2-acetoxymethyl ester for 40 minutes at room temperature. The cells were washed twice with pH 7.4 Ca^2+ chelating buffer containing 10 mM glucose, 140 mM NaCl, 1 mM EDTA, 1 mM EGTA, 5 mM KCl, 1 mM MgCl2, and 10 mM HEPES, and were re-suspended in the same buffer. Then, 20 nM of uracil was added to the cells. Fluorescence was continuously recorded at an interval of 0.5 seconds (excitation at 340 nm and 380 nm; emission at 510 nm) by fluorescent spectrophotometer (Shimadzu, Tokyo, Japan) at room temperature.
For orientation: A change in cytosolic calcium serves as a functional read-out for many receptors and channels.

For the compound `O=c1cc[nH]c(=O)[nH]1` [uracil], the “infection-induced gut ROS after coingestion of uracil with URA− strain” value in the data set with DUOX (E. carotovora-pyrE::Tn5 plus uracil) was “normal level of infection-induced ROS”. Moreover, the “lowest concentration inducing gut ROS generation” value with DUOX (dose-dependent analysis, oral ingestion, adult Drosophila) is ≥ 10 pM. Moreover, the “ROS-inducing ability / DUOX activation” value in the data set with DUOX (nucleobases and pyrimidine analogs, 20 nM each, ingestion for 15 minutes) is “capable of activating DUOX”. Also, in the data set on DUOX (uracil 20 nM for 1.5 hours, PLCβ-DUOX signaling-dependent (absent in DUOX-RNAi, PLCβ−/−)), the “gut ROS generation” value is given as “generation of large amounts of gut ROS”. Further, the “requirement of Gαq for uracil-induced ROS generation” value in the data set with DUOX (uracil 20 nM for 1.5 hours, control vs Gαq−/− flies) is “required”. Moreover, the “uracil-induced ROS generation in presence of commensal bacteria in the gut” value in the data set on DUOX (uracil 20 nM, 1.5 hours, GF flies monoassociated with C. intestini, A. pomorum or L. plantarum) is “could not inhibit the ROS-generating ability of uracil”. Moreover, the “p38 MAPK activation” value in the data set with p38 is listed as “p38 MAPK activation”. Besides, in the data set on IMD pathway, the “gut IMD pathway activation leading to AMP production” value was “unable to activate the gut IMD pathway”. In the data set on PLCβ, the “PLC activation (membrane localization of active PLC)” value is on record as “PLC activation”. The “host lethality / mortality after long-term ingestion of uracil” value in the data set with germ-free Drosophila (germ-free control flies, uracil-containing vs normal food) was “lethality of control flies in a dose-dependent manner; also recorded: statistically significant difference in mortality”. Further, the “uracil-induced host pathology in PLCβ−/− or DUOX-RNAi flies” value in the data set on germ-free Drosophila (in vivo) was “completely absent”. Also, in the data set with Drosophila S2 cells, the “Ca2+ mobilization” value was “Ca^2+ mobilization”.
